# From patent US11229618B2 (Amarin Pharmaceuticals Ireland Limited, priority 2012, dated 2022)
# Test: AAMI 6-week study: essential fatty acid parameters in plasma (gas chromatography)
# Assay type: in vivo, human
# Details: for AA Plasma Mean change from Baseline / DHA Plasma Mean change from Baseline / AA Plasma 1 or 2 g versus 4 g LS Mean / DHA Plasma 1 or 2 g versus 4 g LS Mean: AAMI; for AA Plasma Mean change from Baseline / DHA Plasma Mean change from Baseline: mean (SD); for DGLA 1 or 2 g versus 4 g, LS Mean / DPAn-3 1 or 2 g versus 4 g, LS Mean / EPA/AA 1 or 2 g versus 4 g, LS Mean / DGLA Mean change from Baseline, Mean (SD) / DPAn-3 Mean change from Baseline, Mean (SD) / EPA/AA Mean change from Baseline, Mean (SD) / DGLA Baseline Mean (SD) / DPAn-3 Baseline Mean (SD) / EPA/AA Baseline Mean (SD): plasma; for DPAn-3 1 or 2 g versus 4 g, LS Mean / EPA/AA 1 or 2 g versus 4 g, LS Mean: p-value <0.001
# Method: A single-center, 6-week, double-blind, randomizes, parallel-group, placebo-controlled, dose-ranging pilot study was performed to evaluate the efficacy, tolerability, and safety of >96% ethyl-EPA in subjects with subjective and objective memory impairment according to generally accepted criteria for Age-Associated Memory Impairment (“AAMI”). The primary objective of the study was to determine the effect of >96% ethyl-EPA 1 g, 2 g, and 4 g daily, compared to placebo, on cognitive performance in subjects with AAMI.
# Ninety-four subjects were randomized into one of six groups: 1 g E-EPA daily (n=23), 2 g E-EPA daily (n=24), 4 g E-EPA daily (n=24), 1 g placebo daily (n=7), 2 g placebo daily (n=8), and 4 g placebo daily (n=8). E-EPA was provided as 500 mg soft gel capsules containing>96% E-EPA and 0.2% dl-α-tocopherol as an antioxidant. Placebo capsules contained 467 mg of liquid paraffin and 0.2% dl-α-tocopherol. Ninety-one subjects completed the study. Two subjects in the 2 g E-EPA group and one subject in the 2 g placebo group discontinued the study.
# Blood samples (10 mL) were collected at Visit 1 (screening) and at Visits 4, 5 and 6. Analysis was performed by MSR Lipid Analysis, Scottish Crop Research Institute, Dundee, UK. The screening sample acted as baseline for the EFA measurements. Lipid was extracted from plasma, serum and RBC suspensions and converted into fatty acid methyl esters which were analyzed by gas chromatography to give fatty acid profiles as micrograms fatty acid per gram of sample (μgFA/g) and normalized area percent.
# RBC and plasma EFA data were collected at baseline, Day 14, 28 and 42 and summarized by visit for each treatment group. Change from baseline and percent change from baseline were also summarized. ANCOVA comparison of ethyl-EPA dose groups and ethyl-EPA versus placebo was performed.
smiles,measurement,setting,value
"CC/C=C\C/C=C\C/C=C\C/C=C\C/C=C\CCCC(=O)OCC [IPE, all-cis eicosa-5,8,11,14,17-pentaenoic acid ethyl ester]",AA Plasma Mean change from Baseline,"1 g daily, Day 14",−9.7 (22.20) μg/g
same,DHA Plasma Mean change from Baseline,"1 g daily, Day 14",−6.4 (13.30) μg/g
same,AA Plasma Mean change from Baseline,"1 g daily, Day 28",−11.3 (28.13) μg/g
same,DHA Plasma Mean change from Baseline,"1 g daily, Day 28",−6.6 (15.53) μg/g
same,AA Plasma Mean change from Baseline,"1 g daily, Day 42",−8.7 (31.35) μg/g
same,DHA Plasma Mean change from Baseline,"1 g daily, Day 42",−5.4 (18.17) μg/g
same,AA Plasma 1 or 2 g versus 4 g LS Mean,1 g versus 4 g,4.2 µg/g
same,DHA Plasma 1 or 2 g versus 4 g LS Mean,1 g versus 4 g,-0.8 µg/g
same,AA Plasma Mean change from Baseline,"2 g daily, Day 14",−13.9 (22.13) μg/g
same,DHA Plasma Mean change from Baseline,"2 g daily, Day 14",−5.4 (14.29) μg/g
same,AA Plasma Mean change from Baseline,"2 g daily, Day 28",21.6 (28.32) μg/g
same,DHA Plasma Mean change from Baseline,"2 g daily, Day 28",−8.1 (15.82) μg/g
same,AA Plasma Mean change from Baseline,"2 g daily, Day 42",−27.3 (26.76) μg/g
same,DHA Plasma Mean change from Baseline,"2 g daily, Day 42",−6.0 (16.69) μg/g
same,AA Plasma 1 or 2 g versus 4 g LS Mean,2 g versus 4 g,15.6 µg/g
same,DHA Plasma 1 or 2 g versus 4 g LS Mean,2 g versus 4 g,1.5 µg/g
same,AA Plasma Mean change from Baseline,"4 g daily, Day 14",−27.2 (28.89) μg/g
same,DHA Plasma Mean change from Baseline,"4 g daily, Day 14",−10.3 (13.35) μg/g
same,AA Plasma Mean change from Baseline,"4 g daily, Day 28",−43.7 (32.24) μg/g
same,DHA Plasma Mean change from Baseline,"4 g daily, Day 28",−13.5 (14.10) μg/g
same,AA Plasma Mean change from Baseline,"4 g daily, Day 42",−48.3 (22.20) μg/g
same,DHA Plasma Mean change from Baseline,"4 g daily, Day 42",−13.8 (15.31) μg/g
same,"DGLA 1 or 2 g versus 4 g, LS Mean","Ethyl-EPA 1 g versus 4 g, p-value 0.028",3.7 µg/g
same,"DPAn-3 1 or 2 g versus 4 g, LS Mean",Ethyl-EPA 1 g versus 4 g,-15.1 µg/g
same,"EPA/AA 1 or 2 g versus 4 g, LS Mean",Ethyl-EPA 1 g versus 4 g,−0.66
same,"DGLA Mean change from Baseline, Mean (SD)","Ethyl-EPA 1 g, Day 14",−10.4 (10.90) μg/g
same,"DPAn-3 Mean change from Baseline, Mean (SD)","Ethyl-EPA 1 g, Day 14",7.5 (5.11) μg/g
same,"EPA/AA Mean change from Baseline, Mean (SD)","Ethyl-EPA 1 g, Day 14",0.3 (0.4)
same,"DGLA Mean change from Baseline, Mean (SD)","Ethyl-EPA 1 g, Day 28",−10.6 (10.23) μg/g
same,"DPAn-3 Mean change from Baseline, Mean (SD)","Ethyl-EPA 1 g, Day 28",8.9 (5.62) μg/g
same,"EPA/AA Mean change from Baseline, Mean (SD)","Ethyl-EPA 1 g, Day 28",0.3 (0.20)
same,"DGLA Mean change from Baseline, Mean (SD)","Ethyl-EPA 1 g, Day 42",−9.4 (9.41) μg/g
same,"DPAn-3 Mean change from Baseline, Mean (SD)","Ethyl-EPA 1 g, Day 42",11.3 (6.61) μg/g
same,"EPA/AA Mean change from Baseline, Mean (SD)","Ethyl-EPA 1 g, Day 42",0.3 (0.24)
same,DGLA Baseline Mean (SD),Ethyl-EPA 1 g,51.2 (15.01) μg/g
same,DPAn-3 Baseline Mean (SD),Ethyl-EPA 1 g,21.1 (6.62) μg/g
same,EPA/AA Baseline Mean (SD),Ethyl-EPA 1 g,0.2 (0.14)
same,"DGLA 1 or 2 g versus 4 g, LS Mean","Ethyl-EPA 2 g versus 4 g, p-value 0.143",2.5 µg/g
same,"DPAn-3 1 or 2 g versus 4 g, LS Mean",Ethyl-EPA 2 g versus 4 g,-9.5 µg/g
same,"EPA/AA 1 or 2 g versus 4 g, LS Mean",Ethyl-EPA 2 g versus 4 g,−0.41
same,"DGLA Mean change from Baseline, Mean (SD)","Ethyl-EPA 2 g, Day 14",−14.1 (6.88) μg/g
same,"DPAn-3 Mean change from Baseline, Mean (SD)","Ethyl-EPA 2 g, Day 14",17.4 (7.49) μg/g
same,"EPA/AA Mean change from Baseline, Mean (SD)","Ethyl-EPA 2 g, Day 14",0.6 (0.23)
same,"DGLA Mean change from Baseline, Mean (SD)","Ethyl-EPA 2 g, Day 28",−16.2 (9.88) μg/g
same,"DPAn-3 Mean change from Baseline, Mean (SD)","Ethyl-EPA 2 g, Day 28",19.4 (8.48) μg/g
same,"EPA/AA Mean change from Baseline, Mean (SD)","Ethyl-EPA 2 g, Day 28",0.8 (0.35)
same,"DPAn-3 Mean change from Baseline, Mean (SD)","Ethyl-EPA 2 g, Day 42",19.3 (8.63) μg/g
same,"EPA/AA Mean change from Baseline, Mean (SD)","Ethyl-EPA 2 g, Day 42",0.7 (0.29)
same,DGLA Baseline Mean (SD),Ethyl-EPA 2 g,53.5 (14.12) μg/g
same,DPAn-3 Baseline Mean (SD),Ethyl-EPA 2 g,19.7 (4.50) μg/g
same,EPA/AA Baseline Mean (SD),Ethyl-EPA 2 g,0.2 (0.12)
same,"DGLA Mean change from Baseline, Mean (SD)","Ethyl-EPA 4 g, Day 14",−22.9 (9.00) μg/g
same,"DPAn-3 Mean change from Baseline, Mean (SD)","Ethyl-EPA 4 g, Day 14",24.5 (11.28) μg/g
same,"EPA/AA Mean change from Baseline, Mean (SD)","Ethyl-EPA 4 g, Day 14",1.1 (0.28)
same,"DGLA Mean change from Baseline, Mean (SD)","Ethyl-EPA 4 g, Day 28",−24.2 (10.73) μg/g
same,"DPAn-3 Mean change from Baseline, Mean (SD)","Ethyl-EPA 4 g, Day 28",29.7 (13.23) μg/g
same,"EPA/AA Mean change from Baseline, Mean (SD)","Ethyl-EPA 4 g, Day 28",1.3 (0.42)
same,"DGLA Mean change from Baseline, Mean (SD)","Ethyl-EPA 4 g, Day 42",−22.5 (10.87) μg/g
same,"DPAn-3 Mean change from Baseline, Mean (SD)","Ethyl-EPA 4 g, Day 42",32.0 (16.01) μg/g
same,"EPA/AA Mean change from Baseline, Mean (SD)","Ethyl-EPA 4 g, Day 42",1.3 (0.45)
same,DGLA Baseline Mean (SD),Ethyl-EPA 4 g,57.1 (14.73) μg/g
same,DPAn-3 Baseline Mean (SD),Ethyl-EPA 4 g,21.7 (4.69) μg/g
same,EPA/AA Baseline Mean (SD),Ethyl-EPA 4 g,0.2 (0.07)
